What all share (test): Z'-LYTE kinase panel
Common to all, as to format: biochemical

For assay [1], the target named is T1, MUSK (Homo sapiens, UniProt O15146).
T1 construct: purchased ThermoFisher (SelectScreen, Z'-LYTE)
T1 sequence (O15146 24-869): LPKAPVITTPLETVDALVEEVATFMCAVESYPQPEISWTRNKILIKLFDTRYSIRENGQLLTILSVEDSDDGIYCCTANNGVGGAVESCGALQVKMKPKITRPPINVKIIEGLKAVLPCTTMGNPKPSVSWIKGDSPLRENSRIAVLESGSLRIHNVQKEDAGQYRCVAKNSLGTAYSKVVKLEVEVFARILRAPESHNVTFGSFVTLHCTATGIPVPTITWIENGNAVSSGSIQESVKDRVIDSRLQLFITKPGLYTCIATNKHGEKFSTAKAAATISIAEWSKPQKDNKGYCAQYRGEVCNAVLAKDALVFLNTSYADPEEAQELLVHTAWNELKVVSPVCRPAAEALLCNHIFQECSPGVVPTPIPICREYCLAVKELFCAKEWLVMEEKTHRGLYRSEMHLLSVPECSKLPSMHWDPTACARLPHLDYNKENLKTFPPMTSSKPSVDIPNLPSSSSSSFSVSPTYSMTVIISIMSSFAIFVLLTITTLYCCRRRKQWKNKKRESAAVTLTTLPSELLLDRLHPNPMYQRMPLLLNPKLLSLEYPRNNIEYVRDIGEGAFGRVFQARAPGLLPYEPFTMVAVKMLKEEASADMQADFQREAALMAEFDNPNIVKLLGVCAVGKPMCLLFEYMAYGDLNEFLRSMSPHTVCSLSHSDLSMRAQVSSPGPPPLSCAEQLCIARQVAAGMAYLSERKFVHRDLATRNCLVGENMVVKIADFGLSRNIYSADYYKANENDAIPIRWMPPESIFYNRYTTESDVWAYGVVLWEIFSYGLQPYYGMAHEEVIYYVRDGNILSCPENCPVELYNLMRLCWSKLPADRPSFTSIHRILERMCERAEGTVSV
In a few lines: (§1)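 A panel of 225 kinases is tested by Z′-LYTE under the standard protocol, with compounds at 10 µM and results given as percentage inhibition.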

The target of assay [2] is T2, LYN B (Homo sapiens, UniProt P07948).
T2 construct: purchased ThermoFisher (SelectScreen, Z'-LYTE)
T2 sequence (P07948 1-491 isoform P07948-2): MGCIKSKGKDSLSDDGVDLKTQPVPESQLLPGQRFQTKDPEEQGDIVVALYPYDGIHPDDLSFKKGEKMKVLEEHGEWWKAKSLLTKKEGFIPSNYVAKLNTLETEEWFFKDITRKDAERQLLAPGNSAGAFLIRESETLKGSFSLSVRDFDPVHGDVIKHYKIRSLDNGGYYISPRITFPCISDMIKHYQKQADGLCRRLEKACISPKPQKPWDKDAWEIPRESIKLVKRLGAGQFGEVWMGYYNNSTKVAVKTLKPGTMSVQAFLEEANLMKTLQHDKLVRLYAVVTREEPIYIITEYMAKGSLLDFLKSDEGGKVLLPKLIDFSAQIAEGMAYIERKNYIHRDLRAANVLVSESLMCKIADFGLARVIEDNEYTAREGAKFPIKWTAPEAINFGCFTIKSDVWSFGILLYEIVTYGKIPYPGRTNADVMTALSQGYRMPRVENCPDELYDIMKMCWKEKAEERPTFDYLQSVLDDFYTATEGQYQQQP
Summed up: as §1

Assay [3] deals with T3, PRKCI (PKC iota) (Homo sapiens, UniProt P41743).
T3 construct: purchased ThermoFisher (SelectScreen, Z'-LYTE)
T3 sequence (P41743 1-596): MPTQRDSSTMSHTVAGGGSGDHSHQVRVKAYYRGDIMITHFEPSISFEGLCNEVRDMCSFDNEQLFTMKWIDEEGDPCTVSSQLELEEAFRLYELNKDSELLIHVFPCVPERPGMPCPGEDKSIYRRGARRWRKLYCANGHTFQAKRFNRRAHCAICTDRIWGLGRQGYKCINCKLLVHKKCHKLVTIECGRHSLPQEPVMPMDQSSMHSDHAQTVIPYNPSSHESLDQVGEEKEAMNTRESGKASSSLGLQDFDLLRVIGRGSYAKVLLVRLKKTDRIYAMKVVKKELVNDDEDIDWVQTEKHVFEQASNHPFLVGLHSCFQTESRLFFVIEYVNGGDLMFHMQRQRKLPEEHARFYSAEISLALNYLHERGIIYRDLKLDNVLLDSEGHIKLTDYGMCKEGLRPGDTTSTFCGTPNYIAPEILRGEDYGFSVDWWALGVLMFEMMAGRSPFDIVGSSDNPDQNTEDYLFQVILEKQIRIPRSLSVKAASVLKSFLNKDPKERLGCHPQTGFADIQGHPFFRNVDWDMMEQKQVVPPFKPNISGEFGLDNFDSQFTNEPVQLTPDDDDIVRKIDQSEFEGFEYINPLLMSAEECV
Summed up:
as §1

The target in assay [4] is T4, PRKCN (PKD3) (Homo sapiens, UniProt O94806).
T4 construct: purchased ThermoFisher (SelectScreen, Z'-LYTE)
T4 sequence (O94806 1-890): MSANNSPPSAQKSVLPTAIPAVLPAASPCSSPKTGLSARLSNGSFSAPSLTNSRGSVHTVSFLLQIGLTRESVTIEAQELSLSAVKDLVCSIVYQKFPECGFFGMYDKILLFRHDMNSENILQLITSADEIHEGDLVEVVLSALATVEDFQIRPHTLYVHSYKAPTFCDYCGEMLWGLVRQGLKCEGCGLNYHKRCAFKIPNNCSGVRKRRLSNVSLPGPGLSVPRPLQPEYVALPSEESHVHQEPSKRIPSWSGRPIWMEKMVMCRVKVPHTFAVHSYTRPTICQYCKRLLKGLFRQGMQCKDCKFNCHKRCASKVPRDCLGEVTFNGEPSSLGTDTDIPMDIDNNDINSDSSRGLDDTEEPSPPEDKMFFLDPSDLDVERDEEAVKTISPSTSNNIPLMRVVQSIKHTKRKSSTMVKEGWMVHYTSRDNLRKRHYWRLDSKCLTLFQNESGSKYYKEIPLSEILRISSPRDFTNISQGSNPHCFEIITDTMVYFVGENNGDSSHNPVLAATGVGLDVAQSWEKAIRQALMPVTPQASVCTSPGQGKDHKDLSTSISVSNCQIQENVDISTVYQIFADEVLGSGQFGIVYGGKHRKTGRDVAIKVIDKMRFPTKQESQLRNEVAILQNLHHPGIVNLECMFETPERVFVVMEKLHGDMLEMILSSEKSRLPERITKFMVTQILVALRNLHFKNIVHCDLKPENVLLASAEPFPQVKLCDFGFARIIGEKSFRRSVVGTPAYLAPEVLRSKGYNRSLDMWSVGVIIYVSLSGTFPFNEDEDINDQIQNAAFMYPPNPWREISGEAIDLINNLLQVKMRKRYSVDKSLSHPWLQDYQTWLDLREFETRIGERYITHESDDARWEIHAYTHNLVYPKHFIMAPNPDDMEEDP
Summed up: as §1

Assay [5] concerns the target T5, GSK3B (GSK3 beta) (Homo sapiens, UniProt P49841).
T5 construct: purchased ThermoFisher (SelectScreen, Z'-LYTE)
In a few lines:
as §1

T5 sequence (P49841 whole entry): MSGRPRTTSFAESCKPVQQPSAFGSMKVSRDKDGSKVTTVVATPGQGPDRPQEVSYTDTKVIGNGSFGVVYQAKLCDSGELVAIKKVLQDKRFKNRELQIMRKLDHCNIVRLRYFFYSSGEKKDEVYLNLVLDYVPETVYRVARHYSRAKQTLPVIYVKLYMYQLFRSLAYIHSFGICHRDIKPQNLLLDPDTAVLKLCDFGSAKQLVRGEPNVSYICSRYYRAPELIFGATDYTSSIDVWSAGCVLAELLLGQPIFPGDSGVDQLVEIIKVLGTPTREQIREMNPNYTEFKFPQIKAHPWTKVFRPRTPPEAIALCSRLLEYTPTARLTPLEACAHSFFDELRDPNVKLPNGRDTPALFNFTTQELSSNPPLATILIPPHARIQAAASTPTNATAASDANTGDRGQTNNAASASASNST

As for “XMD8-92 [Compound 2, reference compound]”, in assay [1] (10 µM compound, ATP Km app), the “MUSK % Inhibition” value is listed as 21%. For the same compound, in assay [2] (10 µM compound, ATP Km app), the “LYN B % Inhibition” value is 39%. In addition, the “PRKCI (PKC iota) % Inhibition” value in assay [3] (10 µM compound, ATP Km app) amounted to 0.17%. Also, the “PRKCN (PKD3) % Inhibition” value in assay [4] (10 µM compound, ATP Km app) is 18%. In addition, the “GSK3B (GSK3 beta) % Inhibition” value in assay [5] (10 µM compound, ATP Km app) is recorded as 88%.

As a reminder, the inhibition is the relative decrease from the control value, in per cent. On to `Cc1cc(Nc2nc(N)nn2C(=O)NC(C)C)ccc1Cl` [Compound 5], for which the inhibition at 10 µM in assay [1] is 22%; in assay [2] it was 35%; in assay [3] it was -6%; in assay [4], 11%; in assay [5], 79%.

`Cc1ncc(-c2nc(Nc3ccc(C(=O)NCCN4CCCCC4)cc3)ncc2F)n1C(C)C` [Compound 3]: the inhibition at 10 µM in assay [1] worked out at 92%; in assay [2], 91%; in assay [3] it was 5.66%; in assay [4], 87%; in assay [5], 101%.

The record behind these values is publication PMC4854315, “Discovery of a novel allosteric inhibitor-binding site in ERK5: comparison with the canonical kinase hinge ATP-binding site” (Acta Crystallographica. Section D, Structural Biology, 2016).
